According to EPA's ToxRefDB 2:

Columns and labels:
rat [1] = conditions: Carcinogenicity, fischer, Oral, Feed, dose end: 100 week, group: systemic
mouse = conditions: Carcinogenicity; b6c3f1; Oral; Feed; dose end: 101 week; group: systemic; systemic / in life observation / body weight / body weight + systemic / pathology microscopic / urinary bladder / inflammation
rat [2] = conditions: Subchronic oral toxicity in rodents, fischer, Feed, dose end: 11 week, group: systemic, systemic / in life observation / body weight / body weight
rabbit = conditions: Subchronic dermal toxicity, new zealand white, Topical, dose end: 13 week, group: systemic, systemic / in life observation / clinical signs / erythema + systemic / pathology gross / skin / [other] + systemic / pathology microscopic…
[3] = systemic / in life observation / body weight / body weight + systemic / pathology gross / eye / opacity

SMILES	LEL (rat [1]; [3]) [mg/kg/day]	NEL (rat [1]; [3]) [mg/kg/day]	LOAEL (rat [1]; systemic / pathology microscopic / urinary bladder / hyperplasia) [mg/kg/day]	NOAEL (rat [1]; systemic / pathology microscopic / urinary bladder / hyperplasia + systemic / in life observation / body weight / body weight + systemic / …) [mg/kg/day]	LEL (mouse) [mg/kg/day]	LOAEL (mouse) [mg/kg/day]	NEL (mouse) [mg/kg/day]	NOAEL (mouse) [mg/kg/day]	LEL (rat [2]) [mg/kg/day]	LOAEL (rat [2]) [mg/kg/day]	NOAEL (rabbit) [mg/kg/day]
O=NN(c1ccccc1)c1ccccc1 [N-Nitrosodiphenylamine]	50	< 50	200	50	347	347	< 347	< 347	200	200	–
O=C([O-])c1ccc2ccccc2c1.O=C([O-])c1ccc2ccccc2c1.[Zn+2] [Zinc naphthenate]	–	–	–	–	–	–	–	–	–	–	< 100
